Assay results: patent publication US9404927B2, “Systems and methods for diagnosing and treating cancer” (The Translational Genomics Research Institute, priority 2013, dated 2016)

Legend:
[1] = test system: Fn14 protein expression in H1993 cells; test: Immunoblot of Fn14 in H1993 cells treated with inhibitors; assay type: cell-based, human; conditions: immunoblot vs vehicle
Method: FIGS. 4A-4C illustrate that c-Met amplification enhances Fn14 expression levels in NSCLC cell lines. (FIG. 4A) Total cell lysates were prepared from CMT64 and CMT167 cell lines and immunoblotted with the indicated antibodies. Tubulin was used as a loading control. (FIG. 4B) Total cell lysates were prepared from H2073 (primary adenocarcinoma NSCLC cell line) and H1993 (patient-matched metastatic cell line with known c-Met amplification) and immunoblotted with the indicated antibodies. Tubulin was used as a loading control. (FIG. 4C) H1993 cells were treated with vehicle or SU11274 for 24 hr. Cells were harvested, total cell lysates were prepared and immunoblotted with an antibody against Fn14. Tubulin was used as a loading control. FIGS. 5A and 5B illustrate that inhibition of MEK or ERK abrogates HGF-induced expression of Fn14. […] Cells were harvested, total cell lysates were prepared and immunoblotted with antibodies to Fn14. Tubulin was used as a loading control. […] Human NSCLC cell lines H2073 and H1993 (American Type Culture Collection, Manassas, Va.) and mouse cell lines CMT64 and CMT167 (Sigma-Aldrich, St. Louis, Mo.) were maintained in RPMI 1640 (Invitrogen, Carlsbad, Calif.) and DMEM (Invitrogen), respectively, supplemented with 10% heat-inactivated fetal bovine serum (FBS) in a 37° C., 5% CO2 atmosphere. […]

[2] = test system: HGF-induced Fn14 expression in H2073 cells; test: Immunoblot of HGF-induced Fn14 expression in serum starved H2073 cells; assay type: cell-based, human; conditions: for HGF-induced Fn14 expression: inhibitor 10 μM pre-treated 30 minutes, then HGF (20 ng) three hours
Method: FIGS. 5A and 5B illustrate that inhibition of MEK or ERK abrogates HGF-induced expression of Fn14. (FIG. 5A) Serum starved H2073 cells pre-treated with either vehicle, U0126, or LY294002 for 30 minutes were exposed to HGF (20 ng) for three hours. Cells were harvested, total cell lysates were prepared and immunoblotted with antibodies to Fn14. Tubulin was used as a loading control. (FIG. 5B) H1993 cells were treated with either vehicle or U0126 for three hours Immunoblots for phosphorylated ERK1/2 (pERK1/2) and Fn14 were performed with tubulin used as a loading control.
Human NSCLC cell lines H2073 and H1993 (American Type Culture Collection, Manassas, Va.) and mouse cell lines CMT64 and CMT167 (Sigma-Aldrich, St. Louis, Mo.) were maintained in RPMI 1640 (Invitrogen, Carlsbad, Calif.) and DMEM (Invitrogen), respectively, supplemented with 10% heat-inactivated fetal bovine serum (FBS) in a 37° C., 5% CO2 atmosphere. For the HGF stimulation, cells were placed in RPMI 1640 without FBS for 18 hours prior to growth factor exposure.
HGF was purchased from Millipore (Billerica, Mass.). SU11274 and U0126 were purchased from Selleck Chemicals (Houston, Tex.). LY294002 was purchased from Tocris Biosciences (R&D Systems, Minneapolis, Minn.). The final concentrations of inhibitors were SU11274 (2 μM), U0126 (10 μM), and LY294002 (10 μM). Antibodies for immunblot analysis against Fn14, c-Met, and phosphorylated c-Met were purchased from Cell Signaling Technology (Danvers, Mass.), while alpha-tubulin was purchased from Millipore. Immunoblot analysis was performed as previously described (Whitsett T G, et al. (2012) Elevated expression of Fn14 in non-small cell lung cancer correlates with activated EGFR and promotes tumor cell migration and invasion. Am J Pathol 181 1): 111-20).

Cc1[nH]c(/C=C2\C(=O)Nc3ccc(S(=O)(=O)N(C)c4cccc(Cl)c4)cc32)c(C)c1C(=O)N1CCN(C)CC1 [SU11274]
Fn14 protein expression ([1]; SU11274 2 μM, 24 hr): inhibition of the Fn14 protein expression

HGF: hepatocyte growth factor, cognate ligand of c-Met, purchased from Millipore
protein expression of Fn14 on exposure to HGF ([2]; HGF (20 ng), three hours): enhanced

O=c1cc(N2CCOCC2)oc2c(-c3ccccc3)cccc12 [LY294002]
HGF-induced Fn14 expression [2]: no effect

N#CC(=C(/N)Sc1ccccc1N)/C(C#N)=C(\N)Sc1ccccc1N [U0126]
HGF-induced Fn14 expression [2]: completely abrogated
Fn14 protein expression ([1]; U0126 10 μM, three hours): significantly decreased
